Values of other authors as cited in US20220047541A1, “PHARMACEUTICAL COMPOSITIONS AND METHODS FOR TREATING PARKINSON'S DISEASE” (Pike Therapeutics, Inc., priority 2020, published 2022).

Columns and labels:
CB2 = CB2 (Homo sapiens, UniProt P34972); settings: given as ×, fold or times
Sequence of CB2 (P34972 whole entry, species assumed): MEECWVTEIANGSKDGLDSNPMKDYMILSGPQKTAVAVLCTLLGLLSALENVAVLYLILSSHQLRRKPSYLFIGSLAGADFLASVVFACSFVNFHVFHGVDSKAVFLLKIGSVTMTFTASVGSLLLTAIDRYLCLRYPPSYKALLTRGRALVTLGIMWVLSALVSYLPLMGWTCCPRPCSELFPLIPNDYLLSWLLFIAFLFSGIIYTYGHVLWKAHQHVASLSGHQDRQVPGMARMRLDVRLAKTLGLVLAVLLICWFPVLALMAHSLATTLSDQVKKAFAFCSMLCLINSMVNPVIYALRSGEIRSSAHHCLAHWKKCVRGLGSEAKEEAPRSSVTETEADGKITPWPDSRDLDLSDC

Compound	selectivity for CB2 over CB1 (CB2)	solubility in water
CCCCCCC(C)(C)c1cc(O)c2c(c1)oc(=O)c1ccc(OC)cc12 [AM-1710]	54 fold	–
CCCn1cc(C(=O)c2ccc(C)c3ccccc23)c2ccccc21 [JWH-120]	173 fold	–
CCCn1c(C)c(C(=O)c2ccc(C)c3ccccc23)c2ccccc21 [JWH-148]	more than 8 fold	–
CCCCCCC(C)(C)c1cc(OC)c2c(c1)OC(C)(C)C1CCC(O)CC21 (stereo not drawn) [JWH-350, 11-nor-1-methoxy-3-(1′,1′-dimethylheptyl)-9α-hydroxyhexahydrocannabinol]	33 fold	–
N[C@@H](Cc1ccc(O)c(O)c1)C(=O)O [Levodopa, L-3,4-dihydroxyphenylalanine (S)-2-amino-3-(3,4-dihydroxyphenyl)propanoic acid]	–	slightly soluble
